Holding throughout (type): in vivo
In experiment [1] the test system is Abutilon theophrasti. Description: greenhouse test, post-emergence treatment, ABUTH. To be noted: 2000 g/ha. The method, boiled down: (§1)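 Seeds were sown per species in loamy sand with about 3.0% humus, grown (or transplanted as seedlings) to 3–15 cm, and treated with water-suspended or emulsified compound. Response was assessed over 2–4 weeks at species-dependent 10–25 °C or 20–35 °C, scored 0 (normal growth) to 100 (complete kill).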

Another experiment relates to Amaranthus retroflexus. Description: greenhouse test, post-emergence treatment, AMARE. In a few lines: as §1
Another experiment concerns Setaria viridis. Description: greenhouse test, pre-emergence treatment, SETVI. The following applies: 2000 g/ha. An excerpt:
(§2) The culture containers used were plastic flowerpots containing loamy sand with approximately 3.0% of humus as the substrate. The seeds of the test plants were sown separately for each species.
(§3) For the pre-emergence treatment, the active ingredients, which had been suspended or emulsified in water, were applied directly after sowing by means of finely distributing nozzles. The containers were irrigated gently to promote germination and growth and subsequently covered with transparent plastic hoods until the plants had rooted. This cover caused uniform germination of the test plants, unless this had been impaired by the active ingredients.
(§4) Depending on the species, the plants were kept at 10-25° C. or 20-35° C., respectively.
(§5) The test period extended over 2 to 4 weeks. During this time, the plants were tended, and their response to the individual treatments was evaluated.
(§6) Evaluation was carried out using a scale from 0 to 100. 100 means no emergence of the plants, or complete destruction of at least the aerial moieties, and 0 means no damage, or normal course of growth. A good herbicidal activity is given at values of at least 70 and a very good herbicidal activity is given at values of at least 85.
(§7) The plants used in the greenhouse experiments were of the following species: […]

Experiment [2] concerns Apera spica-venti. In words: greenhouse test, post-emergence treatment, APESV. The following applies: post-emergence, 2000 g/ha.
Excerpt: as §2
(§8) For the post-emergence treatment, the test plants were first grown to a height of 3 to 15 cm, depending on the plant habit, and only then treated with the active ingredients which had been suspended or emulsified in water. For this purpose, the test plants were either sown directly and grown in the same containers, or they were first grown separately as seedlings and transplanted into the test containers a few days prior to treatment.
as §4, §5, §6, §7

In experiment [3] the test system is Echinocloa crus-galli. In words: greenhouse test, post-emergence treatment, ECHCG. The following applies: post-emergence, 2000 g/ha. In a few lines: as §1
Experiment [4] has as its system Alopecurus myosuroides. In words: greenhouse test, pre-emergence treatment, ALOMY. To be noted: 2000 g/ha.
Excerpt: as §2, §3, §4, §5, §6, §7

In experiment [5] the test system is Echinocloa crus-galli. Description: greenhouse test, pre-emergence treatment, ECHCG. The following applies: 2000 g/ha. The method, boiled down: (§9)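 Scores run from 0, normal growth, to 100, no emergence or aerial parts destroyed, assessed after 2 to 4 weeks at 10-25 °C or 20-35 °C depending on species. Actives in water were spray-applied immediately post-sowing onto loamy sand with approximately 3.0% humus; hoods kept on until rooting.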

The next experiment has as its system Agrostis stolonifera. In words: greenhouse test, post-emergence treatment, AGSST. To be noted: 2000 g/ha.
Excerpt: as §2, §8, §4, §5, §6, §7

In experiment [6] the test system is Apera spica-venti. Description: greenhouse test, pre-emergence treatment, APESV. To be noted: 2000 g/ha. The method, boiled down: as §9
For the next experiment, the system named is Poa annua. Description: greenhouse test, pre-emergence treatment, POAAN. The following applies: 2000 g/ha.
Excerpt: as §2, §3, §4, §5, §6, §7

The test system of experiment [7] is Alopecurus myosuroides. Description: greenhouse test, post-emergence treatment, ALOMY. The following applies: post-emergence. In a few lines: as §1
The subject of another experiment is Avena fatua. In words: greenhouse test, post-emergence treatment, AVEFA. To be noted: 2000 g/ha. The method, boiled down: as §1
In the next experiment the test system is Matricaria inodora. Description: greenhouse test, pre-emergence treatment, MATIN. The following applies: 2000 g/ha.
Excerpt: as §2, §3, §4, §5, §6, §7

The next experiment deals with Chenopodium album. In words: greenhouse test, post-emergence treatment, CHEAL. To be noted: 250 g/ha.
Excerpt: as §2, §8, §4, §5, §6, §7

The test system of experiment [8] is Abutilon theophrasti. Description: greenhouse test, pre-emergence treatment, ABUTH. The following applies: 2000 g/ha.
Excerpt: as §2, §3, §4, §5, §6, §7

On to `Brc1ccccc1-c1cnc(C2CC2)nc1C1CC1` [Ex. 39], for which the herbicidal activity entry in the experiment with Abutilon theophrasti [1], in the experiment with Amaranthus retroflexus (2000 g/ha) and with Setaria viridis was “very good (a very good herbicidal activity is given at values of at least 85)” throughout.

As for `CC(O)Cc1nc(C2CC2)ncc1-c1ccccc1Cl` (stereo not shown) [Ex. 105], the herbicidal activity result in the experiment on Apera spica-venti [2], with Echinocloa crus-galli [3], in the experiment with Alopecurus myosuroides [4] and in the experiment on Echinocloa crus-galli [5] was “very good (a very good herbicidal activity is given at values of at least 85)” throughout.

For the compound `C=C(C(=O)OC)c1nc(C2CC2)ncc1-c1ccccc1Cl` [Ex. 221], the herbicidal activity result with Abutilon theophrasti [1], with Echinocloa crus-galli [3], in the experiment with Agrostis stolonifera, in the experiment on Apera spica-venti [6], in the experiment on Echinocloa crus-galli [5] and in the experiment on Poa annua was “very good (a very good herbicidal activity is given at values of at least 85)” in each case.

Turning to `Clc1ccccc1-c1cnc(C2CC2)nc1-c1cnco1` [Ex. 260], the herbicidal activity result is listed as “very good (a very good herbicidal activity is given at values of at least 85)” with Alopecurus myosuroides [7] (2000 g/ha); “good (A good herbicidal activity is given at values of at least 70)” in the experiment with Avena fatua; “good (A good herbicidal activity is given at values of at least 70)” in the experiment with Echinocloa crus-galli [3]; “good (A good herbicidal activity is given at values of at least 70)” with Apera spica-venti [6]; “very good (a very good herbicidal activity is given at values of at least 85)” with Echinocloa crus-galli [5]; “very good (a very good herbicidal activity is given at values of at least 85)” in the experiment with Matricaria inodora.

On to `Cc1nc(C)c(-c2nc(C3CC3)ncc2-c2ccccc2Br)o1` [Ex. 265], for which the herbicidal activity entry is given as “good (A good herbicidal activity is given at values of at least 70)” in the experiment with Alopecurus myosuroides [7] (250 g/ha), “very good (a very good herbicidal activity is given at values of at least 85)” in the experiment on Amaranthus retroflexus (250 g/ha) and “good (A good herbicidal activity is given at values of at least 70)” in the experiment with Chenopodium album.

Consider `Clc1ccccc1-c1cnc(C2CC2)nc1-c1nc2ccccc2[nH]1` [Ex. 297], for which the herbicidal activity result is “very good (a very good herbicidal activity is given at values of at least 85)” in the experiment with Alopecurus myosuroides [7] (2000 g/ha); “very good (a very good herbicidal activity is given at values of at least 85)” in the experiment on Avena fatua; “very good (a very good herbicidal activity is given at values of at least 85)” with Echinocloa crus-galli [3]; “good (A good herbicidal activity is given at values of at least 70)” in the experiment on Abutilon theophrasti [8]; “very good (a very good herbicidal activity is given at values of at least 85)” in the experiment with Apera spica-venti [6]; “good (A good herbicidal activity is given at values of at least 70)” in the experiment on Echinocloa crus-galli [5].

Values taken from patent publication US11178871B2, “Herbicidal pyrimidine compounds” (BASF SE, priority 2016, dated 2021).
